Like-named read-outs stand apart in the source and are kept apart here.

Common to all, as to type: cell-based
Experiment [1] relates to MSSA1 (methicillin-sensitive Staphylococcus aureus clinical isolate). Put plainly: Broth microdilution MIC (NCCLS 2000), strain MSSA1. As to conditions: 18 h. The method, then: (§1) Antimicrobial susceptibility testing was performed by broth assay followed standard laboratory procedures (the National Committee for Clinical Laboratory Standards (NCCLS) protocol 2000). The MIC in this assay was defined as the lowest concentration of the antibiotic under test that inhibited the visible growth of the microorganism under study.
(§2) There were eight strains of Staphylococcus aureus tested. All were from clinical isolates as they represent strains actually present in the community and so of clinical relevance. Three strains were sensitive to methicillin (MSSA), and five strains were resistant to methicillin (MRSA).
(§3) The MIC for each of the eight strains was determined for penicillin G and for vancomycin using dilutions made from the stock preparations purchased (both from Sigma). […]
(§4) The antimicrobial susceptibility test was performed in a 96-well microtitre plate and following standard National Committee for Clinical Laboratory Standards (NCCLS) protocol (NCCLS, 2000). […] Minimal inhibitory concentration (MIC) was determined by the microdilution method in Mueller-Hinton broth (Oxoid, Hampshire, UK), according to the standards of the NCCLS (2000). […]
(§5) Each bacterial strain was plated overnight on Mueller-Hinton agar and then transferred to a broth 3 hours before the assay was performed. […] Microplates were examined 18 hours later and determined for MIC. […]
On the technique in general: In broth dilution the organism is exposed to a series of concentrations in liquid medium.

In experiment [2] the test system is MSSA2 (methicillin-sensitive Staphylococcus aureus clinical isolate). As to the kind of experiment: Broth microdilution MIC (NCCLS 2000), strain MSSA2. Conditions: 18 h. On the procedure: as §1, §2, §3, §4, §5
Experiment [3] has as its system MSSA3 (methicillin-sensitive Staphylococcus aureus clinical isolate). Put plainly: Broth microdilution MIC (NCCLS 2000), strain MSSA3. Conditions: 18 h. On the procedure:
as §1, §2, §3, §4, §5

The subject of experiment [4] is MRSA1 (methicillin-resistant Staphylococcus aureus clinical isolate). As to the kind of experiment: Broth microdilution MIC (NCCLS 2000), strain MRSA1. Conditions: 18 h. The method, then:
as §1, §2, §3, §4, §5

For experiment [5], the system named is MRSA2 (methicillin-resistant Staphylococcus aureus clinical isolate). As to the kind of experiment: Broth microdilution MIC (NCCLS 2000), strain MRSA2. Conditions: 18 h. On the procedure: as §1, §2, §3, §4, §5
Experiment [6] concerns MRSA3 (methicillin-resistant Staphylococcus aureus clinical isolate). Put plainly: Broth microdilution MIC (NCCLS 2000), strain MRSA3. As to conditions: 18 h. On the procedure:
as §1, §2, §3, §4, §5

The test system of experiment [7] is MRSA4 (methicillin-resistant Staphylococcus aureus clinical isolate). As to the kind of experiment: Broth microdilution MIC (NCCLS 2000), strain MRSA4. Conditions: 18 h. The method, then:
as §1, §2, §3, §4, §5

For experiment [8], the system named is MRSA5 (methicillin-resistant Staphylococcus aureus clinical isolate). Put plainly: Broth microdilution MIC (NCCLS 2000), strain MRSA5. Conditions: 18 h. On the procedure:
as §1, §2, §3, §4, §5

In experiment [9] the test system is eight strains of Staphylococcus aureus (MSSA and MRSA clinical isolates). As to the kind of experiment: Broth microdilution MIC (NCCLS 2000), summary over all tested strains. Conditions: read-out: MIC concentrations of the different strains. The method, then: as §1, §2, §3, §4, §5

As for `CN[C@H](CC(C)C)C(=O)N[C@H]1C(=O)N[C@@H](CC(N)=O)C(=O)N[C@H]2C(=O)N[C@H]3C(=O)N[C@H](C(=O)N[C@H](C(=O)O)c4cc(O)cc(O)c4-c4cc3ccc4O)[C@H](O)c3ccc(c(Cl)c3)Oc3cc2cc(c3O[C@@H]2O[C@H](CO)[C@@H](O)[C@H](O)[C@H]2O[C@H]2C[C@](C)(N)[C@H](O)[C@H](C)O2)Oc2ccc(cc2Cl)[C@H]1O` [Van, vancomycin], the MIC stood at 0.5 µg/mL in [1]; 0.5 µg/mL in experiment [2]; 0.5 µg/mL in experiment [3]; 0.5 µg/mL in experiment [4]; 1 µg/mL in [5]; 1 µg/mL in experiment [6]. For the same compound, the MIC is 0.5 µg/mL in experiment [7], 0.5 µg/mL in [8] and 0.5 to 1 µg/mL in experiment [9].
Turning to `CC1(C)S[C@@H]2[C@H](NC(=O)Cc3ccccc3)C(=O)N2[C@H]1C(=O)O` [Pen, penicillin G], the MIC in experiment [1] (strain MSSA1, extract where present 1% w/v final, 37° C., Mueller-Hinton broth, read-out: MIC) was found to be 64 µg/mL; in experiment [2] (strain MSSA2, extract where present 1% w/v final, 37° C., Mueller-Hinton broth, read-out: MIC), 32 µg/mL; in experiment [3] (strain MSSA3, extract where present 1% w/v final, 37° C., Mueller-Hinton broth, read-out: MIC), 8 µg/mL; in experiment [4] (strain MRSA1, extract where present 1% w/v final, 37° C., Mueller-Hinton broth, read-out: MIC) it was 512 µg/mL; in experiment [5] (strain MRSA2, extract where present 1% w/v final, 37° C., Mueller-Hinton broth, read-out: MIC), 256 µg/mL; in experiment [6] (strain MRSA3, extract where present 1% w/v final, 37° C., Mueller-Hinton broth, read-out: MIC), 1020 µg/mL. The MIC in [7] (strain MRSA4, extract where present 1% w/v final, 37° C., Mueller-Hinton broth, read-out: MIC) was 256 µg/mL; in [8] (strain MRSA5, extract where present 1% w/v final, 37° C., Mueller-Hinton broth, read-out: MIC) it was 512 µg/mL; in experiment [9] (antibiotic alone, range over the eight MSSA and MRSA strains), 8 to 1020 µg/mL.
